Data: publication PMC7899551, “Phase 1 study of Z-endoxifen in patients with advanced gynecologic, desmoid, and hormone receptor-positive solid tumors” (Oncotarget, 2021)
Several values for one entry are separate records, joined by “and”; a condition that tells them apart may be missing. Identical values can stand only once. Like-named read-outs stand apart in the source and are kept apart here.

Experiment: Plasma pharmacokinetics of Z-endoxifen (HPLC assay, non-compartmental analysis)
Assay type: in vivo, human
Description: This was an open-label trial of Z-endoxifen in patients with advanced solid tumors (https://clinicaltrials.gov/ identifier: NCT01273168). Z-endoxifen-HCl was supplied by the Pharmaceutical Management Branch, National Cancer Institute, as 20 and 40 mg capsules; agent was administered orally once daily on a continuous schedule in 28-day cycles with a starting dose of 20 mg/day taken either 1 hour before or 2 hours after meals. Dose escalation followed a traditional 3+3 design in which patients were dose-escalated to the next dose level (DL) in cohorts of 3 patients until dose-limiting toxicity (DLT) was observed. DLT was defined as an adverse event that occurred during cycle 1, was thought to be related to study drug administration, and met one of the following criteria: grade ≥ 3 non-hematologic toxicities (except diarrhea, nausea and vomiting, alopecia, rising creatinine or electrolyte toxicities that resolved within 24 hours, or intolerable estrogen withdrawal symptoms) or grade ≥ 3 hematologic toxicities (except neutropenia lasting less than 5 days, lymphopenia, or anemia). Eight dose levels (DL1-8) were examined: 20, 40, 60, 100, 140, 200, 280, and 360 mg, respectively. Two patients at DL8 received the free base form of Z-endoxifen on day 1 rather than the hydrochloride salt to assess the pharmacokinetics of that formulation.
A 3-mL blood sample was collected in a K2 EDTA tube on day 1 of cycle 1 before drug administration and at the following times post-first dose: 0.5, 1, 2, 3, 4, 6, 8, and 24 hours. Samples were collected at the same time points on day 28 of cycle 1 for DL1-6 until a protocol amendment eliminated the requirement for these samples at the higher dose levels. Samples were wrapped in aluminum foil after collection to protect from light exposure. A 10-mL aliquot of urine was collected before agent administration on cycle 1 day 1, for 24 hours after dosing on day 1, and before drug administration on cycle 2 day 1; samples were refrigerated prior to analysis.
Plasma and urine concentrations of Z- and E-endoxifen were measured using a validated, post-column fluorescence derivatization HPLC assay. Non-compartmental pharmacokinetic parameters were calculated using WinNonlin version 7.0 (Pharsight Corp., Mountainview, CA, USA). A 2 μM Cmax target was established for day 28 plasma concentration. The amount of Z-endoxifen excreted in urine was measured over a 24-hour collection period.

[1] = DL1 20 mg oral, day 1, individual patients, listed as Z-endoxifen HCl
[2] = DL1 20 mg/day oral, day 28, individual patients, listed as Z-endoxifen HCl
[3] = DL2 40 mg oral, day 1, individual patients, listed as Z-endoxifen HCl
[4] = DL2 40 mg/day oral, day 28, individual patients, listed as Z-endoxifen HCl
[5] = DL3 60 mg oral, day 1, individual patients, listed as Z-endoxifen HCl
[6] = DL3 60 mg/day oral, day 28, individual patients, listed as Z-endoxifen HCl
[7] = DL4 100 mg oral, day 1, individual patients, listed as Z-endoxifen HCl
[8] = DL5 140 mg oral, day 1, individual patients, listed as Z-endoxifen HCl
[9] = DL5 140 mg/day oral, day 28, individual patients, listed as Z-endoxifen HCl
[10] = DL6 200 mg oral, day 1, individual patients, listed as Z-endoxifen HCl
[11] = DL6 200 mg/day oral, day 28, individual patients, listed as Z-endoxifen HCl
[12] = DL7 280 mg oral, day 1, individual patients, listed as Z-endoxifen HCl
[13] = DL8 360 mg oral, day 1, individual patients, listed as Z-endoxifen HCl

For `CC/C(=C(\c1ccc(O)cc1)c1ccc(OCCNC)cc1)c1ccccc1` [Z-endoxifen], the “AUC(0-24h)” value [1] was 1055 ng·h/mL and 1169 ng·h/mL, the C24h [1] was 32.6 ng/mL and 32.7 ng/mL and the Cmax [1] was 61.2 ng/mL and 67.7 ng/mL. The “AUC(0-24h)” value [2] was 4469 ng·h/mL and 5313 ng·h/mL, the “Adjusted Half-Life” value [2] was 61.8 h and 67.0 h and the C24h [2] was 48.8 ng/mL and 139.6 ng/mL and 206.6 ng/mL. The Cmax [2] was 283.7 ng/mL and 374.1 ng/mL, the Tmax [2] was 0.0 h and the “AUC(0-24h)” value [3] was 1715 ng·h/mL and 1336 ng·h/mL and 1764 ng·h/mL and 2162 ng·h/mL. For the same molecule, the C24h [3] was 43.6 ng/mL and 54.9 ng/mL and 33.7 ng/mL and 55.2 ng/mL and 75 ng/mL, the Cmax [3] was 121.1 ng/mL and 93.8 ng/mL and 102.3 ng/mL and 160.3 ng/mL and the “AUC(0-24h)” value [4] was 3871 ng·h/mL and 4832 ng·h/mL. For the same molecule, the “Adjusted Half-Life” value [4] was 36.6 h, the C24h [4] was 111.8 ng/mL and 194.5 ng/mL and the Cmax [4] was 231.8 ng/mL and 220.7 ng/mL. For the same molecule, the Tmax [4] was 3.0 h, the “Adjusted Half-Life, Mean” value (DL2 40 mg/day oral, day 28, mean) was 40.4 h and the “AUC(0-24h)” value [5] was 1953 ng·h/mL and 2836 ng·h/mL. For the same molecule, the C24h [5] was 72.2 ng/mL and 86.2 ng/mL, the Cmax [5] was 109.0 ng/mL and 166.0 ng/mL and the Tmax [5] was 24.0 h and 6.1 h. For the same molecule, the “AUC(0-24h)” value [6] was 3432 ng·h/mL and 9961 ng·h/mL and 10846 ng·h/mL, the “Adjusted Half-Life” value [6] was 26.0 h and 76.2 h and 54.9 h and the C24h [6] was 169.4 ng/mL and 521.2 ng/mL and 345.6 ng/mL. The Cmax [6] was 199.6 ng/mL and 521.2 ng/mL and 531.1 ng/mL, the Tmax [6] was 0.5 h and 24.0 h and the “Adjusted Half-Life, Mean” value (DL3 60 mg/day oral, day 28, mean) was 52.4 h. The “AUC(0-24h)” value [7] was 4834 ng·h/mL and 5511 ng·h/mL, the C24h [7] was 157 ng/mL and 175 ng/mL and the Cmax [7] was 301 ng/mL and 324 ng/mL. The Cmax (DL4 100 mg/day oral, day 28, individual patients, listed as Z-endoxifen HCl) was 719 ng/mL, the “AUC(0-24h)” value [8] was 7200 ng·h/mL and 14650 ng·h/mL and 7425 ng·h/mL and the C24h [8] was 209 ng/mL and 509 ng/mL and 216 ng/mL. For the same molecule, the Cmax [8] was 380 ng/mL and 957 ng/mL and 494 ng/mL, the “AUC(0-24h)” value [9] was 16591 ng·h/mL and the “Adjusted Half-Life” value [9] was 28.1 h. The C24h [9] was 528 ng/mL, the Cmax [9] was 1485 ng/mL and 881 ng/mL and the Tmax [9] was 3.0 h. The “AUC(0-24h)” value [10] was 12520 ng·h/mL and 8804 ng·h/mL, the C24h [10] was 457 ng/mL and 271 ng/mL and the Cmax [10] was 299 ng/mL and 760 ng/mL and 492 ng/mL. For the same molecule, the “AUC(0-24h)” value [11] was 16690 ng·h/mL and 52925 ng·h/mL and 22641 ng·h/mL, the “Adjusted Half-Life” value [11] was 61.6 h and 33.8 h and the C24h [11] was 787 ng/mL and 1814 ng/mL and 606 ng/mL. The Cmax [11] was 984 ng/mL and 2574 ng/mL and 1364 ng/mL, the “mean C24 h relative to the 5.9 ng/mL threshold associated with clinical benefit on tamoxifen” value (DL6, Day 28) was “more than 180 fold” and the “AUC(0-24h)” value [12] was 15935 ng·h/mL and 10460 ng·h/mL and 11355 ng·h/mL and 13153 ng·h/mL and 13081 ng·h/mL and 24217 ng·h/mL and 16532 ng·h/mL. The C24h [12] was 485 ng/mL and 345 ng/mL and 384 ng/mL and 467 ng/mL and 337 ng/mL and 687 ng/mL and 574 ng/mL, the Cmax [12] was 825 ng/mL and 715 ng/mL and 887 ng/mL and 796 ng/mL and 1395 ng/mL and 1007 ng/mL and the Tmax (DL8 360 mg oral, day 1, individual patients) was 3.0 h. The “AUC(0-24h)” value [13] was 32079 ng·h/mL and 21926 ng·h/mL and 23576 ng·h/mL and 20747 ng·h/mL and 22520 ng·h/mL and 9274 ng·h/mL and 13704 ng·h/mL, the C24h [13] was 1190 ng/mL and 722 ng/mL and 653 ng/mL and 801 ng/mL and 658 ng/mL and 213 ng/mL and 493 ng/mL and the Cmax [13] was 1841 ng/mL and 1352 ng/mL and 1374 ng/mL and 1432 ng/mL and 1437 ng/mL and 780 ng/mL and 948 ng/mL. For the same molecule, the Tmax [13] was 3.0 h, the Cmax, Mean (HCl salt, 360 mg oral, day 2 (after free base on day 1), mean of patients 35 and 36) was 2360 ng/mL and the “AUC(0–24 h)” value (HCl salt, 360 mg oral, day 2 (after free base on day 1), patients 35 and 36 individually, listed as Z-endoxifen HCl) was 23709 ng·h/mL and 59421 ng·h/mL. For the same molecule, the “plasma concentration achieved by all patients” value (all dose levels) was > 5.97 ng/mL, the “AUC(0–24h) dependence on dose” value (day 1, DL1-8) was “linear increase with dose” and the concentration at 24 h (human, plasma, oral, 20 mg, DL1, calculated from C24h in ng/mL, read-out: Plasma concentration 24 hours after the first dose) was 67 nM. The concentration at 28 day (human, plasma, oral, 20 mg, DL1, read-out: day 28 trough concentration, range) was 48.8 to 207 ng/mL, the concentration at 28 day (human, plasma, oral, 20 mg/day, DL1 (20 mg/day), day 28, read-out: average plasma concentration) was 353 nM and the concentration at 28 day (human, plasma, oral, 360 mg, DL8, if accumulation similar to lower dose levels, read-out: estimated day 28 concentration) was 1220 ng/mL to 2970 ng/mL and 3.3 µM to 7.9 µM. The concentration at 24 h (human, plasma, oral, 360 mg, DL8, calculated from C24h in ng/mL, read-out: Plasma concentration 24 hours after the first dose) was 1810 nM, the half-life (human, plasma, oral, range over dose levels, read-out: elimination half-life (t½)) was 30.6 to 55.9 h and the AUC(0-t) (human, plasma, po, 20 mg, DL1 20 mg oral, day 1, individual patients, read-out: AUC(0-24h)) was 1030 ng·h/mL. The concentration at 24 h (human, plasma, po, 20 mg, DL1 20 mg oral, day 1, individual patients, read-out: C24h) was 25.2 ng/mL, the Cmax (human, plasma, po, 20 mg, DL1 20 mg oral, day 1, individual patients, read-out: Cmax) was 76.9 ng/mL and the Tmax (human, plasma, po, 20 mg, DL1 20 mg oral, day 1, individual patients, read-out: Tmax) was 3 h. The AUC(0-t) (human, plasma, po, 20 mg, DL1 20 mg oral, day 1, mean, read-out: AUC(0-24h), Mean) was 1080 ng·h/mL, the concentration at 24 h (human, plasma, po, 20 mg, DL1 20 mg oral, day 1, mean, read-out: C24h, Mean) was 30.2 ng/mL and the Cmax (human, plasma, po, 20 mg, DL1 20 mg oral, day 1, mean, read-out: Cmax, Mean) was 68.6 ng/mL. For the same molecule, the Tmax (human, plasma, po, 20 mg, DL1 20 mg oral, day 1, mean, read-out: Tmax, Mean) was 3.7 h, the AUC(0-t) (human, plasma, po, 20 mg/day, DL1 20 mg/day oral, day 28, individual patients, read-out: AUC(0-24h)) was 2960 ng·h/mL and the half-life (human, plasma, po, 20 mg/day, DL1 20 mg/day oral, day 28, individual patients, read-out: Adjusted Half-Life (converted)) was 38.9 h. The Cmax (human, plasma, po, 20 mg/day, DL1 20 mg/day oral, day 28, individual patients, read-out: Cmax) was 201 ng/mL, the AUC(0-t) (human, plasma, po, 20 mg/day, DL1 20 mg/day oral, day 28, mean, read-out: AUC(0-24h), Mean) was 4250 ng·h/mL and the half-life (human, plasma, po, 20 mg/day, DL1 20 mg/day oral, day 28, mean, read-out: Adjusted Half-Life, Mean (converted)) was 55.9 h. It also gave a concentration at 24 h (human, plasma, po, 20 mg/day, DL1 20 mg/day oral, day 28, mean, read-out: C24h, Mean) of 132 ng/mL.
